Data: publication PMC11887051, “Discovery of ONO-2920632 (VU6011887): A Highly Selective and CNS Penetrant TREK-2 (TWIK-Related K+ Channel 2) Preferring Activator In Vivo Tool Compound” (ACS Chemical Neuroscience, 2025)
Several values for one entry are separate records, joined by “and”; a condition that tells them apart may be missing. Equal values may be shown once. Entries after “also recorded” stand apart in the source; their conditions may differ.

What was measured:
Glutamate, NMDA, Glycine = Glutamate, NMDA, Glycine (Rattus norvegicus, UniProt P35439); test: Eurofins Lead Profiling radioligand binding; details: title: 30 μM
Sequence of Glutamate, NMDA, Glycine (P35439 394-800 limits assumed): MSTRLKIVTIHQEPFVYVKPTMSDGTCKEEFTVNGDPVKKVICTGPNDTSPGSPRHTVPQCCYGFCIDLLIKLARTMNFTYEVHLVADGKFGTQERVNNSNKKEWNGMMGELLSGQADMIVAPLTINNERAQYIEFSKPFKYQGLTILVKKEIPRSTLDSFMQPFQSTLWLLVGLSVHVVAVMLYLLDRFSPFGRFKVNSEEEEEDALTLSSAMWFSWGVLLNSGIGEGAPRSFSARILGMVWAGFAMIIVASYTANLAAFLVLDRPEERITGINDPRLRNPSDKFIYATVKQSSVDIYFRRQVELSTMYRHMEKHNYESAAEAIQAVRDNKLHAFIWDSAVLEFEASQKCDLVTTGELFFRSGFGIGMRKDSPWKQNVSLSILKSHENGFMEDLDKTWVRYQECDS

Adrenergic β1 = Adrenergic β1 (Homo sapiens, UniProt P08588); test: Eurofins Lead Profiling radioligand binding; details: title: 30 μM
Sequence of Adrenergic β1 (P08588 whole entry): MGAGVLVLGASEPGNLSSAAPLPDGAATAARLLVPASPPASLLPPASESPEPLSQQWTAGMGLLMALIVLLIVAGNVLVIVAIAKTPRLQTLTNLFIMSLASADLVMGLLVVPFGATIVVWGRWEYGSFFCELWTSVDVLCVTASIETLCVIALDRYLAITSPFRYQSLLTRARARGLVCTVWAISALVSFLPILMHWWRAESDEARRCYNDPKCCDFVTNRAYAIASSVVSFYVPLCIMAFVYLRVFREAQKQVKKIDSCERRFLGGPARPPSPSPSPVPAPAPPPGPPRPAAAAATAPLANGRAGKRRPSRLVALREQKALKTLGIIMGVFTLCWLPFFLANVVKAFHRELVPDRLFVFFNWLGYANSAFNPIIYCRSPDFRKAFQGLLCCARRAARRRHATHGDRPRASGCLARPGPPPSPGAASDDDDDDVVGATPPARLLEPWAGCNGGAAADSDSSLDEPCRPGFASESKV

GABAA, Muscimol, Central = test: Eurofins Lead Profiling radioligand binding; design: species or system Rat; details: title: 30 μM
TREK-2 [1] = biological target: T1, TREK-2 (Homo sapiens, UniProt P57789); test: human 86Rb flux K2P selectivity panel; format: cell-based
T1 sequence (P57789 1-538): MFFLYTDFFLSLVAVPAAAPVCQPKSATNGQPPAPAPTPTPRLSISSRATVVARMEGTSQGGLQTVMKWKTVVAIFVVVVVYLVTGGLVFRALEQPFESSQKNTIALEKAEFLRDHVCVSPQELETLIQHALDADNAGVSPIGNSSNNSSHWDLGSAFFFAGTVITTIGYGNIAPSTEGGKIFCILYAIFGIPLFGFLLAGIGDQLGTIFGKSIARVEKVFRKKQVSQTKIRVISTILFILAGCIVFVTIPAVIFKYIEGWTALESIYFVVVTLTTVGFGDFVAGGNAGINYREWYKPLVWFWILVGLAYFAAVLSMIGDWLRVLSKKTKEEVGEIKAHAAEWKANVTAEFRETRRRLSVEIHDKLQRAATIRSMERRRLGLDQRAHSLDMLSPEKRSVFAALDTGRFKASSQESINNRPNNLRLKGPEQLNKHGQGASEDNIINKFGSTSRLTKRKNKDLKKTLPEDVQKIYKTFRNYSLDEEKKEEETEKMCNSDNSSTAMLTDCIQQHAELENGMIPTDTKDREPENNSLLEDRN

Histamine H2 = Histamine H2 (Homo sapiens, UniProt P25021); test: Eurofins Lead Profiling radioligand binding; details: title: 30 μM
Sequence of Histamine H2 (P25021 whole entry): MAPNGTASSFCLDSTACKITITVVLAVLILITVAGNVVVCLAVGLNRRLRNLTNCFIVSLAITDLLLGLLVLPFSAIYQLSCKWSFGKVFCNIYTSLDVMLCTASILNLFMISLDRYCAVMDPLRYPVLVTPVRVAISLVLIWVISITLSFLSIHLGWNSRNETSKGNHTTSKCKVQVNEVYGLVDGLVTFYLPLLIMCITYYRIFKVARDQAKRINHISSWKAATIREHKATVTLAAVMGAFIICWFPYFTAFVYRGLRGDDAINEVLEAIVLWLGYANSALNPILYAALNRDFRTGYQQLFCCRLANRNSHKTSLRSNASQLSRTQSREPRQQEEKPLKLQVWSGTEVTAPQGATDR

TRESK = biological target: T2, TRESK (Homo sapiens, UniProt Q7Z418); test: human 86Rb flux K2P selectivity panel; format: cell-based; details: 86Rb flux K2P panel; for activity at TRESK: data is not shown
T2 sequence (Q7Z418 1-384): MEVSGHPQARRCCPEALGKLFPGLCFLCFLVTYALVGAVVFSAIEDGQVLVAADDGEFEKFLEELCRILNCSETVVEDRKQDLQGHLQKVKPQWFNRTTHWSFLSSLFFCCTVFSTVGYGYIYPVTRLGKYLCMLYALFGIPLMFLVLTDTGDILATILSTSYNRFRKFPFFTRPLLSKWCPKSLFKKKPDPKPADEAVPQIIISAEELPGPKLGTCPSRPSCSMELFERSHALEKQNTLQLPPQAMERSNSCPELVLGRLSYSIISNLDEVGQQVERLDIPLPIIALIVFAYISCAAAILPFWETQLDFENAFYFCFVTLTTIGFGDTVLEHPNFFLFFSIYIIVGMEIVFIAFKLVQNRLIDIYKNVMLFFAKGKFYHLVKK

Thyroid Hormone = test: Eurofins Lead Profiling radioligand binding; design: species or system Rat; details: title: 30 μM
Ryanodine = test: Eurofins Lead Profiling radioligand binding; design: species or system Rat; details: title: 30 μM
Glucocorticoid = Glucocorticoid (Homo sapiens, UniProt P04150); test: Eurofins Lead Profiling radioligand binding; details: title: 30 μM
Sequence of Glucocorticoid (P04150 whole entry): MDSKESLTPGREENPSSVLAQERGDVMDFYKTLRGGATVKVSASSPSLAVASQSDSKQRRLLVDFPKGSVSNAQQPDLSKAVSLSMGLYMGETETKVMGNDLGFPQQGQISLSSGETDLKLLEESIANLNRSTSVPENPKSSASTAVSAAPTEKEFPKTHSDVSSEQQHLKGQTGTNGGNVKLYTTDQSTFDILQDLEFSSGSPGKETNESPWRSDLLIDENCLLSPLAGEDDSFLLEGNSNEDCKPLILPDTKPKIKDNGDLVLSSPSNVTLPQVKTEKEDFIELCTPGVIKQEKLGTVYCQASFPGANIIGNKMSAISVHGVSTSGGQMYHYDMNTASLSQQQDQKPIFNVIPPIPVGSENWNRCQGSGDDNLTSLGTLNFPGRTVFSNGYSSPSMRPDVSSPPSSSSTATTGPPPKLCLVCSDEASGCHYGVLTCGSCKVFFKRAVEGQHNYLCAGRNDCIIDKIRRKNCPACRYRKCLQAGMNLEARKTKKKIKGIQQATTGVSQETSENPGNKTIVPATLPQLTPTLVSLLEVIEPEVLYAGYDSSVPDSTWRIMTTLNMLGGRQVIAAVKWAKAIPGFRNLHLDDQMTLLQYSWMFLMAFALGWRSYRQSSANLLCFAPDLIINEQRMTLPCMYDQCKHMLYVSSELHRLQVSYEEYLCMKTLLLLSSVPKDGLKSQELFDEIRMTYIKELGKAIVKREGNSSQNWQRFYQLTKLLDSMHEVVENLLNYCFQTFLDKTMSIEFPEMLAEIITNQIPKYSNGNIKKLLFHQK

TWIK-2 = test: human 86Rb flux K2P selectivity panel; format: cell-based; details: 86Rb flux K2P panel
Rolipram = test: Eurofins Lead Profiling radioligand binding; design: species or system Rat; details: title: 30 μM
Serotonin (5-HT2B) = Serotonin (5-HT2B) (Homo sapiens, UniProt P41595); test: Eurofins Lead Profiling radioligand binding; details: title: 30 μM
Sequence of Serotonin (5-HT2B) (P41595 whole entry): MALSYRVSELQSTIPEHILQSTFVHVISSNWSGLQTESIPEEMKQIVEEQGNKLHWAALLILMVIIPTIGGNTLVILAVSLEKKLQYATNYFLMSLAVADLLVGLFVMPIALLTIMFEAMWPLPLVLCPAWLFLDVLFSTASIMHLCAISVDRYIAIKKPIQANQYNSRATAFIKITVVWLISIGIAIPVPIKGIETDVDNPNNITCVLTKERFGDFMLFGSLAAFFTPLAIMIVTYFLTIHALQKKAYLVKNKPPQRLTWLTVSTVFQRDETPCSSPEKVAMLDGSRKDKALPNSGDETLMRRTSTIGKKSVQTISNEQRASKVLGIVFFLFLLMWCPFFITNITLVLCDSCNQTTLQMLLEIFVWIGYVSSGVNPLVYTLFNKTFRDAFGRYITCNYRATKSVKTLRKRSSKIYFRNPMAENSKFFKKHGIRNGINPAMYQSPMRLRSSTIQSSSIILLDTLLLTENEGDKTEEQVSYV

[2] = mouse brain homogenate binding; format: in vitro ADME; details: read-out: mouse brain fu
dog IV PK study = format: in vivo; details: male, beagle, plasma, 0.1 mg/kg IV, HP-β-CD solution
Procedure: Plasma and brain tissue samples originating from in vivo studies were analyzed by electrospray ionization using an AB Sciex Q-TRAP 5500 (Foster City, CA) that was coupled to a Shimadzu LC-20AD pump (Columbia, MD) and a Leap Technologies CTC PAL auto-sampler (Carrboro, NC). Analytes were separated by gradient elution using a C18 column (3 x 50 mm, 3 mm; Fortis Technologies Ltd, Cheshire, UK) that was thermostated at 40 °C. HPLC mobile phase A was 0.1% formic acid in water (pH unadjusted); mobile phase B was 0.1% formic acid in acetonitrile (pH […]
min, with an isocratic hold for 0.5 min, before transitioning to 10% B over 0.05 min. The column was re-equilibrated (1 min) before the next sample injection. The total run time was 2.55 min, and the HPLC flow rate was 0.5 ml/min. The source temperature was set at 500 °C, and mass spectral analyses were performed using a Turbo-Ion spray source in positive ionization mode (5.0-kV spray voltage) and using multiple-reaction monitoring of transitions specific for the analytes. All data were analyzed using AB Sciex Analyst 1.5.1 software. […]
For determination of the plasma concentration-time profile, compounds were formulated in methyl cellulose and administered as a 3 mg/kg PO dose to male C57BL/6 mouse or SD rat (n = 2). For the same determination, compounds were formulated in HP-β-CD and administered as a 0.1 mg/kg IV dose to male beagle dog (n = 2).
Plasma samples originating from in vivo studies were analyzed by electrospray ionization using a Q-TRAP 5500 (AB Sciex) that was coupled to a Prominence UFLC XR (Shimadzu Corporation).
Analytes were separated by gradient elution using a Shim-pack XR-ODS II (2 x 75 mm, 2.2μm, Shimadzu Corporation) that was thermostated at 40 °C. HPLC mobile phase A was 5 mM ammonium acetate containing 0.2% formic acid in water (pH unadjusted); mobile phase B was […]
hold for 1.5 min, before transitioning to 10% B over 0.1 min. The column was re-equilibrated (0.9 min) before the next sample injection. The total run time was 4.0 min, and the HPLC flow rate was 0.5 ml/min. […]

Adenosine A2A = Adenosine A2A (Homo sapiens, UniProt P29274); test: Eurofins Lead Profiling radioligand binding; details: title: 30 μM
Sequence of Adenosine A2A (P29274 whole entry): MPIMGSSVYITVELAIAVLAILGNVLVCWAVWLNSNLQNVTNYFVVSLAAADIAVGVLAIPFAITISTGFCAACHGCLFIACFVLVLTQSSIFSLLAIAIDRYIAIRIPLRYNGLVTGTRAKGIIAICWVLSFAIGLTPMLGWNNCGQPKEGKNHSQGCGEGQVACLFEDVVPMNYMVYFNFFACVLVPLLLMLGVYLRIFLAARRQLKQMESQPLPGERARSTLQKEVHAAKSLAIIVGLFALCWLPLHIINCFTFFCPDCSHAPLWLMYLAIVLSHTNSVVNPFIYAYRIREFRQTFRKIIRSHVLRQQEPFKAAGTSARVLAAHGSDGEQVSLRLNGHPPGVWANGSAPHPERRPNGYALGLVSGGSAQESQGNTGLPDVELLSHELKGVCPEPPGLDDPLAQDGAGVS

Dopamine D1 = Dopamine D1 (Homo sapiens, UniProt P21728); test: Eurofins Lead Profiling radioligand binding; details: title: 30 μM
Sequence of Dopamine D1 (P21728 whole entry): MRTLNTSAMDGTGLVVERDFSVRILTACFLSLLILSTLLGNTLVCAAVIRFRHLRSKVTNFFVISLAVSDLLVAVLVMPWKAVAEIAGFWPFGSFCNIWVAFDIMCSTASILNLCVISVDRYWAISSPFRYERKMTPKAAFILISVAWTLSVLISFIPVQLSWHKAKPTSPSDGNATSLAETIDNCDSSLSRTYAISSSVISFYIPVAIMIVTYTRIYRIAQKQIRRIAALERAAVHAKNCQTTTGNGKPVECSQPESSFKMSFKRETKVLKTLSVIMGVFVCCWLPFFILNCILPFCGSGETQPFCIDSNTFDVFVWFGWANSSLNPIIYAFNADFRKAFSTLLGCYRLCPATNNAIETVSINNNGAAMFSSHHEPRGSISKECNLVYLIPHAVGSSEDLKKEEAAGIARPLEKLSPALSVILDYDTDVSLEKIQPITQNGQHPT

TREK-2 [3] = biological target: T1, TREK-2; test: human TREK-2 MPC assay; format: cell-based; design: expressed in transfected cells; host or cells: HEK293

O=C(NCc1ccc(OC(F)(F)F)cc1F)c1ccc2ncnn2c1 [Compound 19b]
inhibition (Glutamate, NMDA, Glycine): -1%
inhibition (Adrenergic β1): 9%
% Inhibition at 10 µM (GABAA, Muscimol, Central): -1%
TREK-2 preference in 86Rb flux assay (TREK-2 [1]; TREK-2 over TREK-1): ~46 fold
activity at TREK-2 in 86Rb flux panel (TREK-2 [1]; data is not shown): submicromolar activity
inhibition (Histamine H2): -20%
selectivity against TRESK over TREK-2 (TRESK): 31 fold
activity at TRESK (TRESK): micromolar inhibitor activity
% Inhibition at 10 µM (Thyroid Hormone): 9%
% Inhibition at 10 µM (Ryanodine): 6%
inhibition (Glucocorticoid): 7%
selectivity against TWIK-2 over TREK-2 (TWIK-2): > 150 fold
% Inhibition at 10 µM (Rolipram): 13%
inhibition (Serotonin (5-HT2B)): 14%
fraction unbound at 6 h, 1 µM [2]: 0.28
half-life (dog IV PK study): 22 h
clearance (dog IV PK study; read-out: CLp): 1.3 mL/min/kg
Vd (dog IV PK study; read-out: Vss): 2.2 L/kg
inhibition (Adenosine A2A): 10%
inhibition (Dopamine D1): 22%

O=C(NCc1ccc(OC(F)(F)F)cc1Cl)c1ccc2nncn2c1 [Compound 20]
activity at TRESK (TRESK): micromolar inhibitor activity; also recorded: micromolar inhibitory activity
EC50 (TREK-2 [3]): 190 nM
Emax (TREK-2 [3]): 142%
selectivity against TWIK-2 over TREK-1/2 (TWIK-2): > 91 fold and > 85 fold
